Laboratory results as given in patent publication US8580918B2, “Peptidic GLP-2 agonists” (Ferring B.V., priority 2009, dated 2013).
Like-named read-outs stand apart in the source and are kept apart here. Where a SMILES comes first, the peptide text is derived from it. Where no end group is shown, it is not given here. [ ]: non-standard residue; d: D form. dPhe(3-Cl) = N[C@H](Cc1cccc(Cl)c1)C(=O)O; d2Thi = N[C@H](Cc1cccs1)C(=O)O; Nle = CCCC[C@H](N)C(=O)O

Key:
[1] = Pharmacokinetics in rats after intravenous bolus injection (systemic clearance); assay type: in vivo; conditions: rat, adult male Sprague-Dawley rats, i.v. bolus, read-out: CL (ml/kg/min) Average
Procedure, shortened: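 Systemic clearance from noncompartmental analysis as dose per kg over trapezoidal AUC extrapolated to infinity, mean and SD across animals. Plasma (K2EDTA) levels by LC/MS/MS after single IV jugular-vein bolus, 0.1-1.0 mg/kg, in 3-4 cannulated male Sprague-Dawley rats.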

[2] = in humans; cited from earlier work
[3] = plasma, 0.2 mg FB/kg, dose 0.20 mg FB/kg

Compound | clearance [1, 3] [mL/kg/min] | clearance ([1]; plasma, dose 1.0 mg FB/kg) [mL/kg/min] | other results
CCCC[C@H](NC(=O)[C@H](CCC(=O)O)NC(=O)[C@H](CC(=O)O)NC(=O)[C@H](CO)NC(=O)[C@H](Cc1ccccc1)NC(=O)[C@H](CO)NC(=O)CNC(=O)[C@H](CC(=O)O)NC(=O)CNC(=O)[C@@H](N)Cc1c[nH]cn1)C(=O)N[C@H](Cc1cccc(Cl)c1)C(=O)N[C@H](C(=O)N[C@H](C(=O)N[C@@H](CC(C)C)C(=O)N[C@@H](CC(=O)O)C(=O)N[C@@H](Cc1ccccc1)C(=O)N[C@@H](CC(C)C)C(=O)N[C@@H](C)C(=O)N[C@@H](C)C(=O)N[C@@H](CCCNC(=N)N)C(=O)N[C@@H](CC(=O)O)C(=O)N[C@@H](Cc1ccccc1)C(=O)N[C@H](C(=O)N[C@@H](CC(N)=O)C(=O)N[C@@H](Cc1c[nH]c2ccccc12)C(=O)N[C@@H](CC(C)C)C(=O)N[C@H](C(=O)N[C@@H](CCC(N)=O)C(=O)N[C@H](C(=O)N[C@@H](CCCCN)C(=O)N[C@H](C(=O)N[C@H](C(=O)N[C@@H](CC(=O)O)C(N)=O)[C@@H](C)O)[C@@H](C)CC)[C@@H](C)O)[C@@H](C)CC)[C@@H](C)CC)[C@@H](C)CC)[C@@H](C)O [Compound 66, [Gly2,Nle10,D-3-Cpa11,Phe16] hGLP-2(1-33)-NH2] (H-HGDGSFSDE[Nle][dPhe(3-Cl)]TILDFLAARDFINWLIQTKITD-NH2) | 0.12 |  | 
CCCC[C@H](NC(=O)[C@H](CCC(=O)O)NC(=O)[C@H](CC(=O)O)NC(=O)[C@H](CO)NC(=O)[C@H](Cc1ccccc1)NC(=O)[C@H](CO)NC(=O)CNC(=O)[C@H](CC(=O)O)NC(=O)CNC(=O)[C@@H](N)Cc1c[nH]cn1)C(=O)N[C@H](Cc1cccs1)C(=O)N[C@H](C(=O)N[C@H](C(=O)N[C@@H](CC(C)C)C(=O)N[C@@H](CC(=O)O)C(=O)N[C@@H](Cc1ccccc1)C(=O)N[C@@H](CC(C)C)C(=O)N[C@@H](C)C(=O)N[C@@H](C)C(=O)N[C@@H](CCCNC(=N)N)C(=O)N[C@@H](CC(=O)O)C(=O)N[C@@H](Cc1ccccc1)C(=O)N[C@H](C(=O)N[C@@H](CC(N)=O)C(=O)N[C@@H](Cc1c[nH]c2ccccc12)C(=O)N[C@@H](CC(C)C)C(=O)N[C@H](C(=O)N[C@@H](CCC(N)=O)C(=O)N[C@H](C(=O)N[C@@H](CCCCN)C(=O)N[C@H](C(=O)N[C@H](C(=O)N[C@@H](CC(=O)O)C(N)=O)[C@@H](C)O)[C@@H](C)CC)[C@@H](C)O)[C@@H](C)CC)[C@@H](C)CC)[C@@H](C)CC)[C@@H](C)O [Compound 68, [Gly2,Nle10,D-Thi11,Phe16] hGLP-2(1-33)-NH2] (H-HGDGSFSDE[Nle][d2Thi]TILDFLAARDFINWLIQTKITD-NH2) | 0.15 |  | 
CC[C@H](C)[C@H](NC(=O)[C@H](Cc1ccccc1)NC(=O)[C@H](CC(=O)O)NC(=O)[C@H](CCCN=C(N)N)NC(=O)[C@H](C)NC(=O)[C@H](C)NC(=O)[C@H](CC(C)C)NC(=O)[C@H](CC(N)=O)NC(=O)[C@H](CC(=O)O)NC(=O)[C@H](CC(C)C)NC(=O)[C@@H](NC(=O)[C@@H](NC(=O)[C@H](CC(N)=O)NC(=O)[C@H](CCSC)NC(=O)[C@H](CCC(=O)O)NC(=O)[C@H](CC(=O)O)NC(=O)[C@H](CO)NC(=O)[C@H](Cc1ccccc1)NC(=O)[C@H](CO)NC(=O)CNC(=O)[C@H](CC(=O)O)NC(=O)[C@H](C)NC(=O)[C@@H](N)Cc1cnc[nH]1)[C@@H](C)O)[C@@H](C)CC)C(=O)N[C@@H](CC(N)=O)C(=O)N[C@@H](Cc1c[nH]c2ccccc12)C(=O)N[C@@H](CC(C)C)C(=O)N[C@H](C(=O)N[C@@H](CCC(N)=O)C(=O)N[C@H](C(=O)N[C@@H](CCCCN)C(=O)N[C@H](C(=O)N[C@H](C(=O)N[C@@H](CC(=O)O)C(=O)O)[C@@H](C)O)[C@@H](C)CC)[C@@H](C)O)[C@@H](C)CC [hGLP-2, reference compound] |  | 24.6 | half-life (t1/2) [2]: 10 min
CC[C@H](C)[C@H](NC(=O)[C@H](Cc1ccccc1)NC(=O)[C@H](CC(=O)O)NC(=O)[C@H](CCCNC(=N)N)NC(=O)[C@H](C)NC(=O)[C@H](C)NC(=O)[C@H](CC(C)C)NC(=O)[C@H](CC(N)=O)NC(=O)[C@H](CC(=O)O)NC(=O)[C@H](CC(C)C)NC(=O)[C@@H](NC(=O)[C@@H](NC(=O)[C@H](CC(N)=O)NC(=O)[C@H](CCSC)NC(=O)[C@H](CCC(=O)O)NC(=O)[C@H](CC(=O)O)NC(=O)[C@H](CO)NC(=O)[C@H](Cc1ccccc1)NC(=O)[C@H](CO)NC(=O)CNC(=O)[C@H](CC(=O)O)NC(=O)CNC(=O)[C@@H](N)Cc1c[nH]cn1)[C@@H](C)O)[C@@H](C)CC)C(=O)N[C@@H](CC(N)=O)C(=O)N[C@@H](Cc1c[nH]c2ccccc12)C(=O)N[C@@H](CC(C)C)C(=O)N[C@H](C(=O)N[C@@H](CCC(N)=O)C(=O)N[C@H](C(=O)N[C@@H](CCCCN)C(=O)N[C@H](C(=O)N[C@H](C(=O)N[C@@H](CC(=O)O)C(=O)O)[C@@H](C)O)[C@@H](C)CC)[C@@H](C)O)[C@@H](C)CC [teduglutide, [Gly2]hGLP 2, reference compound] | 9.9 | 8 | 
HGEGSFSSELSTILDALAARDFIAWLIATKITDKKKKKK-NH2 (C-terminus assumed) [ZP-1846, reference compound] |  |  | clearance ([1]; in vivo, dose 0.20 mg FB/kg): 2.8 mL/kg/min
HGEGTFSSELATILDALAARDFIAWLIATKITDKKKKKK-NH2 [ZP-1848, reference compound] | 2.4 |  | 
